# Measured values published in patent publication US20240092779A1, “USP1 INHIBITORS AND USES THEREOF” (Zentaur Therapeutics USA Inc., priority 2022, published 2024).
# Key:
# MDA-MB-436 cells = experiment: CTG Protocol (MDA-MB-436 GI50), antiproliferative activity; type: cell-based, human; details: Homo sapiens, 168 h; MDA-MB-436 cells (BRCA1 mutation), 7-day incubation, CellTiter-Glo
# Summary of the method: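 BRCA1-mutant MDA-MB-436 cells were seeded at 1000 cells/well in DMEM, left overnight, then exposed to a 9-point, 3-fold compound series for 7 days at 37 °C, 5% CO2. Viability was read by CellTiter-Glo luminescence. % inhibition was plotted against concentration to derive GI50.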
# [1] = Liver microsomal stability (HLM); type: in vitro ADME; details: human, liver microsomes, human liver microsomes 0.5 mg/mL, 1 μM compound, NADPH
# [2] = molecular target: T1, recombinant USP1/UAF1 enzyme complex (Homo sapiens, UniProt O94782); experiment: Enzyme assay: deubiquitinase fluorometric assay with ubiquitin-Rhodamine substrate; type: biochemical; details: USP1/UAF1, Ub-Rho110 substrate, 2 hours preincubation, 1 hour reaction
# T1 construct: purchased Biortus
# T1 sequence (O94782 whole entry): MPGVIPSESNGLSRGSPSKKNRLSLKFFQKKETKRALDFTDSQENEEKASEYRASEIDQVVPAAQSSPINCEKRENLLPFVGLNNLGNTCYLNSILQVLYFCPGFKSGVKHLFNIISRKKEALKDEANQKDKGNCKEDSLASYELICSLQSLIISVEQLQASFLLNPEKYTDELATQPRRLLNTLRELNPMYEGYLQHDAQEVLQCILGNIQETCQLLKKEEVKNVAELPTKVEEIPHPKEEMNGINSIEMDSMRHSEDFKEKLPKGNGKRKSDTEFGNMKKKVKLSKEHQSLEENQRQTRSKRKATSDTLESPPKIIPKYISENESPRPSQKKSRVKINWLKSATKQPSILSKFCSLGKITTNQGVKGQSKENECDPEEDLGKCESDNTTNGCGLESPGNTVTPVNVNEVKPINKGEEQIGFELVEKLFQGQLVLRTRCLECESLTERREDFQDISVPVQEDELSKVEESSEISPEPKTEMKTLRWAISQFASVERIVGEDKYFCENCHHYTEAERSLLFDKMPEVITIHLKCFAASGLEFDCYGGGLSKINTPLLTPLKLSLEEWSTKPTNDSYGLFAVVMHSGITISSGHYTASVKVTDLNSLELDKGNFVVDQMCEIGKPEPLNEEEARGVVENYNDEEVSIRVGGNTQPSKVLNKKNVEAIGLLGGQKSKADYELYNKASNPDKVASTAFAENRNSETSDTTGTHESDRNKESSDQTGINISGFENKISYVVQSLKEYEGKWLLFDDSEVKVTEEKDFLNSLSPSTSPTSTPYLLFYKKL
# T1 sequence (Q8TAF3 whole entry partner): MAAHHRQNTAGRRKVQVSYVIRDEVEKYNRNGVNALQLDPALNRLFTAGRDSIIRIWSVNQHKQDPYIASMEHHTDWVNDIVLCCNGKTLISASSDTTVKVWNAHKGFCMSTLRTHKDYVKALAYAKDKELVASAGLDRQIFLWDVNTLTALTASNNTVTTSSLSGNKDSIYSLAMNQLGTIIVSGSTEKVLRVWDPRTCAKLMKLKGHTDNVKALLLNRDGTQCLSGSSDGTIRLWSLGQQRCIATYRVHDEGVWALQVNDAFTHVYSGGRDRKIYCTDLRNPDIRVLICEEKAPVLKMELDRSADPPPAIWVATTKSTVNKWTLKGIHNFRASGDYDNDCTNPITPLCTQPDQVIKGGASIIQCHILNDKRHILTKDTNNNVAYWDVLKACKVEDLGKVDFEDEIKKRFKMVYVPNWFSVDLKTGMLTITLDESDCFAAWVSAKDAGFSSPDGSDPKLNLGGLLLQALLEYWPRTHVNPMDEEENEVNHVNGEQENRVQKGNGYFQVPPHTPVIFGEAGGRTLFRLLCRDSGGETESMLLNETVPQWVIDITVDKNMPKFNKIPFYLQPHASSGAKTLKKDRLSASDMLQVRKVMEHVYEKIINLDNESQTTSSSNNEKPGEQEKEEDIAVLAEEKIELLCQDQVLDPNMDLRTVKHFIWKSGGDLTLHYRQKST
# Summary of the method: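 IC50 derived by 4-parameter logistic fitting of Ex 485/Em 535 fluorescence after Ub-Rho110 (50 nM) cleavage by 0.004 nM USP1/UAF1 complex. Enzyme and compounds (10-point series, 10 μM–0.5 nM) were preincubated 2 h at room temperature; substrate reaction then ran 1 h before citric acid stop.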
SMILES,GI50 (MDA-MB-436 cells) [nM],microsomal CLint at 1 μM [1] [µL/min/mg],IC50 [2] [nM]
"COc1cc(Cn2c(=O)ccc3c(C)nc(-c4c(OC)ncnc4C4CC4)nc32)ccc1-c1nc(C(F)(F)F)cn1C1CC1 [Compound I-152, 8-({4-[1-cyclopropyl-4-(trifluoromethyl)imidazo]-2-yl]-3-methoxyphenylmethyl)-2-(4-cyclopropyl-6-methoxypyrimidin-5-yl)-4-methylpyrido[2,3-d]pyrimidin-7-one]",< 10,< 10,
"COc1ncnc(C2CC2)c1-c1ncc2ccc(=O)n(Cc3ccc(-c4cccc(C(F)(F)F)n4)cc3)c2n1 [Compound I-36, 2-(4-cyclopropyl-6-methoxypyrimidin-5-yl)-8-({4-[6-(trifluoromethyl)pyridin-2-yl]phenyl}methyl)pyrido[2,3-d]pyrimidin-7-one]",10 to 100,10 to 50,10 to 100
"COc1ncnc(C2CC2)c1-c1ncc2ccc(=O)n(Cc3ccc(-c4nc(C(F)(F)F)cn4C(C)C)cc3)c2c1F [Compound I-27, 7-(4-cyclopropyl-6-methoxypyrimidin-5-yl)-8-fluoro-1-({4-[1-isopropyl-4-(trifluoromethyl)imidazol-2-yl]phenyl}methyl)-1,6-naphthyridin-2-one]",10 to 100,< 10,10 to 100
COc1ncnc(C2CC2)c1-c1ncc2cc(-c3cnn(C)n3)c(=O)n(Cc3ccc(-c4nc(C(F)(F)F)cn4C4CC4)cc3)c2n1 [Compound I-151],10 to 100,< 10,
"COc1ncnc(C2CC2)c1-c1nc(C)c2cc(-c3cnn(C)c3)c(=O)n(Cc3ccc(-c4nc(C(F)(F)F)cn4C4CC4)cc3)c2n1 [Compound I-148, 8-({4-[1-Cyclopropyl-4-(Trifluoromethyl)Imidazol-2-Yl]Phenyl}Methyl)-2-(4-Cyclopropyl-6-Methoxypyrimidin-5-Yl)-4-Methyl-6-(1-Methylpyrazol-4-Yl)Pyrido[2,3-d]Pyrimidin-7-One]",< 10,< 10,
COc1ncnc(C2CC2)c1-c1ncc2cc(-c3cn(C)nn3)c(=O)n(Cc3ccc(-c4nc(C(F)(F)F)cn4C4CC4)cc3)c2n1 [Compound I-150],10 to 100,< 10,

# Other lines, results leading:
GI50 (MDA-MB-436 cells) [nM],microsomal CLint at 1 μM [1] [µL/min/mg],IC50 [2] [nM],SMILES
< 10,< 10,,COc1ncnc(C2CC2)c1-c1ncc2cc(-c3c(C)noc3C)c(=O)n(Cc3ccc(-c4nc(C(F)(F)F)cn4C4CC4)cc3)c2n1 [Compound I-155]
< 10,< 10,,"COc1ncnc(C2CC2)c1-c1nc(C)c2cc(C3CCN(C)CC3)c(=O)n(Cc3ccc(-c4nc(C(F)(F)F)cn4C4CC4)cc3)c2n1 [Compound I-157, 8-({4-[1-Cyclopropyl-4-(Trifluoromethyl)Imidazol-2-Yl]Phenyl}Methyl)-2-(4-Cyclopropyl-6-Methoxypyrimidin-5-Yl)-4-Methyl-6-(1-Methylpiperidin-4-Yl)Pyrido[2,3-d]Pyrimidin-7-One]"
10 to 100,< 10,,COc1ncnc(C2CC2)c1-c1ncc2cc(-c3ncnn3C)c(=O)n(Cc3ccc(-c4nc(C(F)(F)F)cn4C4CC4)cc3)c2n1 [Compound I-156]
< 10,< 10,,COc1cc(Cn2c(=O)ccc3c(C)nc(-c4c(OC)ncnc4C4CC4)nc32)cc(F)c1-c1nc(C(F)(F)F)cn1C1CC1 [Compound I-163]
10 to 100,< 10,,"COc1ncnc(C2CC2)c1-c1ncc2cc(-c3ncnn3C)c(=O)n(Cc3ccc(-c4nc(C(F)(F)F)cn4C(C)C)cc3)c2n1 [Compound I-168, 2-(4-Cyclopropyl-6-Methoxypyrimidin-5-Yl)-8-({4-[1-Isopropyl-4-(Trifluoromethyl)Imidazol-2-Yl]Phenyl}Methyl)-6-(2-Methyl-1,2,4-Triazol-3-Yl)Pyrido[2,3-d]Pyrimidin-7-One]"
10 to 100,< 10,,"COc1ncnc(C2CC2)c1-c1nc(C)c2cc(-c3ncnn3C)c(=O)n(Cc3ccc(-c4nc(C(F)(F)F)cn4C4CC4)cc3)c2n1 [Compound I-167, 8-({4-[1-Cyclopropyl-4-(Trifluoromethyl)Imidazol-2-Yl]Phenyl}Methyl)-2-(4-Cyclopropyl-6-Methoxypyrimidin-5-Yl)-4-Methyl-6-(2-Methyl-1,2,4-Triazol-3-Yl)Pyrido[2,3-d]Pyrimidin-7-One]"
10 to 100,< 10,,"COc1ncnc(C2CC2)c1-c1ncc2cc(-c3ncn(C)n3)c(=O)n(Cc3ccc(-c4nc(C(F)(F)F)cn4C4CC4)cc3)c2n1 [Compound I-153, 8-({4-[1-cyclopropyl-4-(trifluoromethyl)imidazo]-2-yl]phenylmethyl)-2-(4-cyclopropyl-6-methoxypyrimidin-5-yl)-6-(1-methyl-1,2,4-triazol-3-yl)pyrido[2,3-d]pyrimidin-7-one]"
